Assay results from patent US20090305894A1, “use of sulfonanilides as herbicide” (priority 2005, published 2009).

Tests used:
Assay type in all cases: in vivo
[1] = test system: paddy rice seedlings (cultivar: Nihonbare); test: Herbicide damage on transplanted paddy rice (Test Example 2, Table 9); settings: 60 g ai/ha, applied to water surface 5 days after transplantation, rated after 3 weeks; 100% = complete withering, 0% = no damage
Protocol: (§1) The formulations of active compounds were obtained as emulsions by mixing 1 part by weight of the active compound with the carrier and emulsifier in the described amounts. The formulations were diluted with water so as to adjust a prescribed dosage.
In a greenhouse each three paddy rice seedlings (cultivar: Nihonbare) were transplanted (transplantation depth 2 cm) in each pot filled with 500 cm^2 of paddy field soil and covered with water in about 2 to 3 cm depth. After 5 days from the transplantation, prescribed diluted solutions of the formulations of the respective active compounds obtained in the same manner as in Test Example 1 were applied to the water surface of each pot. After the treatment, the water depth of 3 cm was kept. The herbicide damage was investigated after 3 weeks of the treatment. The herbicide damage was rated as 100% in the case of complete withering and 0% in the case of no herbicide damage. When the herbicide damage was 20% or lower, the safety as a paddy rice herbicide was evaluated to be excellent. As the representative examples, the test results of the compound Nos. 3, 4, 5, 6, 7, 70, 115, 127 and 128, and comparative compound C-2 are shown in Table 9.

[2] = test system: Lindernia procumbens Philcox (resistant to sulfonylurea type herbicide); test: Herbicidal efficacy test to weeds resistant to sulfonylurea type herbicide (Test Example 1, applied on water surface, Table 8); settings: 60 g ai/ha, applied on water surface at beginning of sprouting, rated after 3 weeks; 100% = complete withering, 0% = no effect
Protocol: (§2) Preparation of formulation of active compound
(§3) Carrier: DMF 5 parts by weight
(§4) Emulsifier: benzyloxypolyglycol ether 1 part by weight
as §1
(§5) In a greenhouse respective seeds of Scirpus juncoides Roxburgh (from Hokkaido, Japan) and Lindernia procumbens Philcox (from Saitama, Japan), which are confirmed to have resistance to a sulfonylurea type herbicide, were inoculated in pots filled with 500 cm^2 of paddy field soil and water was poured to the pot in about 2 to 3 cm depth. At the beginning of sprouting of the weeds, prescribed diluted solutions of the formulations of the respective active compounds obtained by the above-mentioned manner were applied on the water surface. After the treatment water depth of 3 cm was kept. The herbicidal effect was investigated after 3 weeks of the treatment. The herbicidal effect was rated as 100% in the case of complete withering and 0% in the case of no herbicidal effect. When the herbicidal effect was 80% or higher, the practical effectiveness as herbicides is recognized. As the representative examples, the test results of the compound Nos. 1, 3, 4, 5, 6, 7, 13, 70, 127, 128 and 130 are shown in Table 8.

[3] = test system: Scirpus juncoides Roxburgh (resistant to sulfonylurea type herbicide); test: as above; settings: 60 g ai/ha, applied on water surface at beginning of sprouting, rated after 3 weeks; 100% = complete withering, 0% = no effect
Protocol: as §2, §3, §4, §1, §5

[4] = test system: rice (cultivar: Balilla); test: Irrigated directly seeded paddy rice, herbicide damage, spraying to soil before sprouting (Test Example 3, Table 10); settings: 20 g ai/ha, rated after 3 weeks
Protocol: as §1
(§6) In a greenhouse seeds of rice (cultivar: Balilla) and weeds (Brachiaria plantaginea, Cyperus esculntus, Cyperus iria L., Echinochloa colonum, Leptochloa chinensis, Ipomoea purpurea, and Sesbania exaltata) were inoculated on the surface layers of pots filled with 100 cm^2 of paddy field soil and covered with soil. Water was poured to produce wet state (water level 0 cm). The prescribed diluted solutions of the formulations of the respective active compounds obtained in the same manner as in Test Example 1 were sprayed on the soil of some pots on completion of the seeding and the solutions of the agents were sprayed over the plants from the above in the rest of the pots after the respective sample plants were grown in first- to third-1 eaf stage in the greenhouse. After one day from the treatment with the compound, water was poured in 3 cm depth. The herbicidal effects and herbicide damage on rice of the respective compounds were investigated after 3 weeks from the treatment. The herbicidal effect and herbicide damage on the rice were rated as 100% in the case of complete withering and 0% in the case of no herbicidal effect or no harm. When herbicidal effect was 80% or higher, it was determined to be practically applicable as herbicides. When the herbicide damage was 20% or lower, the safety of the herbicide was evaluated to be excellent.

[5] = test system: Brachiaria plantaginea; test: Irrigated directly seeded paddy rice, herbicidal effect, spraying to soil before sprouting (Test Example 3, Table 10); settings: 20 g ai/ha, rated after 3 weeks
Protocol: as §1, §6

[6] = test system: Cyperus esculntus; test: as above; settings: 20 g ai/ha, rated after 3 weeks
Protocol: as §1, §6

[7] = test system: Cyperus iria L.; test: as above; settings: 20 g ai/ha, rated after 3 weeks
Protocol: as §1, §6

[8] = test system: Echinochloa colonum; test: as above; settings: 20 g ai/ha, rated after 3 weeks
Protocol: as §1, §6

[9] = test system: Ipomoea purpurea; test: as above; settings: 20 g ai/ha, rated after 3 weeks
Protocol: as §1, §6

[10] = test system: Leptochloa chinensis; test: as above; settings: 20 g ai/ha, rated after 3 weeks
Protocol: as §1, §6

[11] = test system: Sesbania exaltata; test: as above; settings: 20 g ai/ha, rated after 3 weeks
Protocol: as §1, §6

[12] = test system: rice (cultivar: Balilla); test: Irrigated directly seeded paddy rice, herbicide damage, spraying to stems and leaves after sprouting (Test Example 3, Table 11); settings: 20 g ai/ha, rated after 3 weeks
Protocol: as §1, §6

[13] = test system: Brachiaria plantaginea; test: Irrigated directly seeded paddy rice, herbicidal effect, spraying to stems and leaves after sprouting (Test Example 3, Table 11); settings: 20 g ai/ha, rated after 3 weeks
Protocol: as §1, §6

[14] = test system: Cyperus esculntus; test: as above; settings: 20 g ai/ha, rated after 3 weeks
Protocol: as §1, §6

[15] = test system: Cyperus iria L.; test: as above; settings: 20 g ai/ha, rated after 3 weeks
Protocol: as §1, §6

[16] = test system: Echinochloa colonum; test: as above; settings: 20 g ai/ha, rated after 3 weeks
Protocol: as §1, §6

[17] = test system: Ipomoea purpurea; test: as above; settings: 20 g ai/ha, rated after 3 weeks
Protocol: as §1, §6

[18] = test system: Sesbania exaltata; test: as above; settings: 20 g ai/ha, rated after 3 weeks
Protocol: as §1, §6

Row | Structure (SMILES) | Herbicide damage on transplanted paddy rice [1] [%] | Herbicidal effect to sulfonylurea resistant weeds: Lindernia procumbens Philcox (from Saitama pref.) [2] [%] | Herbicidal effect to sulfonylurea resistant weeds: Scirpus juncoides Roxburgh (from Hokkaido) [3] [%] | also measured
1 | COCc1cccc(C(O)c2nc(OC)cc(OC)n2)c1NS(=O)(=O)C(F)F (centres unmarked) [C-2, reference compound] | 30 |  |  | 
2 | CCOc1ccccc1OS(=O)(=O)NC(=O)Nc1nc(OC)cc(OC)n1 [C-3, Ethoxysulfuron, reference compound] |  | 10 | 10 | 
3 | COC(=O)c1ccccc1CS(=O)(=O)NC(=O)Nc1nc(OC)cc(OC)n1 [C-4, Bensulfuron-methyl, reference compound] |  | 10 | 10 | 
4 | COc1cc(OC)nc(C(O)c2ccc(F)c(F)c2NS(=O)(=O)C(F)F)n1 (centres unmarked) [Compound No. 3, 2,3-Difluoro-6-[1-(4,6-dimethoxypyrimidin-2-yl)-1-hydroxymethyl]-N-difluoromethanesulfonanilide] | 10 | 100 | 100 | 
5 | COc1nc(OC)nc(C(=O)c2cccc(Cl)c2N(C)S(=O)(=O)C(F)F)n1 [compound 2] |  |  |  | Herbicide damage on Rice [4]: 30%; Herbicidal effect Brachiaria plantaginea [5]: 80%; Herbicidal effect Cyperus esculntus [6]: 90%; Herbicidal effect Cyperusiria L. [7]: 100%; Herbicidal effect Echinochloa colonum [8]: 80%; Herbicidal effect Ipomoea purpurea [9]: 80%; Herbicidal effect Leptochloa chinensis [10]: 90%; Herbicidal effect Sesbania exaltata [11]: 80%; Herbicide damage on Rice [12]: 10%; Herbicidal effect Brachiaria plantaginea [13]: 100%; Herbicidal effect Cyperus esculntus [14]: 100%; Herbicidal effect Cyperusiria L. [15]: 100%; Herbicidal effect Echinochloa colonum [16]: 100%; Herbicidal effect Ipomoea purpurea [17]: 100%; Herbicidal effect Sesbania exaltata [18]: 100%
6 | COc1cc(OC)nc(C(O)c2ccc(Cl)c(F)c2NS(=O)(=O)C(F)F)n1 (centres unmarked) [compound 4, 2-fluoro-3-chloro-6-[1-(4,6-dimethoxypyrimidin-2-yl)-1-hydroxymethyl]-N-difluoromethanesulfonanilide] | 10 | 100 | 100 | 
7 | COc1cc(OC)nc(C(O)c2ccc(F)cc2NS(=O)(=O)C(F)F)n1 (centres unmarked) [compound 5] | 0 | 100 | 100 | 
8 | COc1cc(OC)nc(C(O)c2c(F)cccc2NS(=O)(=O)C(F)F)n1 (centres unmarked) [compound 6] | 10 | 100 | 100 | 
